Experimental data as given in patent US20050255537A1, “Method for monitoring treatment with a parathyroid hormone” (priority 1999, published 2005).

Experiments:
[1] = tested on: postmenopausal women; experiment: Example 4 population pharmacodynamic models of total lumbar spine and femoral neck BMD; assay type: in vivo, human
Text: Data from the studies described in Examples 1-3 above were further analyzed to develop more detailed models for the use of bone markers in monitoring and predicting effects of PTH on clinically significant correlates of efficacy in the treatment of osteoporosis, such as bone mineral density (BMD). Population pharmacodynamic (PD) models were developed to describe total lumbar spine and femoral neck bone mineral density (BMD) responses in ˜1500 postmenopausal women enrolled in a phase 3 study of LY333334 [rhPTH(1-34)]. Serum LY333334 (LY), procollagen 1 carboxy-terminal propeptide (PICP) and bone specific alkaline phosphatase (B SAP) concentrations, and urinary excretion of N-telopeptide (NTX) and free deoxypyridinoline (DPD) were also measured in a subset of ˜350 patients. LY dose, average steady-state LY concentration, and early changes in markers of bone turnover were each evaluated for their ability to predict subsequent changes in BMD. […] Response was greatest in patients with increased fracture risk (i.e., older women with low BMD, low body weight, and high bone turnover at baseline). In the subset analysis, PICP was the strongest indicator of BMD response; an increase >101 pM after 1 month of therapy was always associated with a gain in spine BMD. NTX was also a better predictor of increase in BMD than LY dose, but dose predicted BMD response better than LY, BSAP or DPD concentrations (p<0.001).
(§1) Population pharmacodynamic models were developed individually for total lumber spine BMD, femoral neck BMD, procollagen 1 carboxy-terminal propeptide (PICP), bone specific alkaline phosphate (BSAP), urinary N-telopeptide (NTX), and urinary free deoxypyridinoline (DPD). These treatment-response models characterized change in the pharmacodynamic endpoints and identified significant patient factors influencing response to therapy.
The final treatment-response models for total lumbar spine and femoral neck BMD were used to calculate BMD values after 21 months of treatment for each patient, based on the individual's parameter estimates (empirical Bayesian estimates). Similarly, the final treatment-response models for each biochemical maker (PICP, BSAP, NTX, and DPD) were used to calculate concentration values after 1 month of treatment for each patient. These predicted BMD measurements were merged with the predicted biochemical marker concentrations for patients who completed at least 12 months of LY333334 therapy.
Biochemical marker response-indicator models were developed to characterize the relationship between the biochemical marker concentrations at 1 month and response to therapy, as measured by change in total lumbar spine and femoral neck BMD.
Population pharmacodynamic analyses were undertaken to evaluate the time course of the relationships between efficacy measures and LY333334 dose or LY333334 concentrations. […] As a part of this assessment, a population placebo-response model describing the change in BMD in patients randomly assigned to placebo (supplemented with calcium and vitamin D) was first developed. Patient-specific factors that explained some of the variability of that model were identified and included in the model. A pharmacodynamic model describing the therapeutic response was then developed for patients randomly assigned to LY333334 treatment using the placebo-response model as the baseline function. Thus, the progression of bone loss that occurs in osteoporosis patients receiving only calcium and vitamin D supplementation was separated from the effects of LY333334 treatment.

[2] = tested on: PICP, BSAP, NTX, DPD; experiment: Example 4 population pharmacodynamic models of biochemical markers (PICP, BSAP, NTX, DPD); assay type: in vivo, human
Text: as §1
The time course of biochemical marker response to LY333334 dose was extensively evaluated as part of the overall population pharmacodynamic analyses. Pharmacodynamic models were developed for four biochemical markers: PICP and BSAP (biochemical measures of bone formation); NTX and […] (biochemical measures of bone resorption). Patient-specific factors that explained some of the variability of each model were identified and included in the model. As an additional evaluation, the relationship between LY333334 exposure and PICP response was modeled. Finally, the biochemical markers were evaluated as potential indicators of response to therapy by modeling the relationship between a change in the biochemical endpoint after 1 month of treatment and the increase in spine and femoral neck BMD after 21 months of treatment. […] Additional patient-specific factors were identified, which further decreased the variability in this predictive model.
An extensive investigation was undertaken to evaluate the time course of biochemical markers of bone formation (PICP and BSAP) and resorption (NTX and DPD) during LY333334 therapy. The population pharmacodynamic evaluation of these biochemical markers included data from approximately 340 patients randomly assigned to receive LY333334 40 μg/day (n≅170) or LY333334 20 μg/day (n≅170). […] Pharmacodynamic models based on linear, exponential, and spline functions of time were evaluated. […] These models reflect the complex time course of change in the underlying processes of bone formation and bone resorption occurring throughout the skeleton in response to the anabolic action induced by LY333334.

[3] = 21 months, 20 and 40 μg groups together

SMILES: CC[C@H](C)[C@H](NC(=O)[C@H](CCC(=O)O)NC(=O)[C@H](CO)NC(=O)[C@@H](NC(=O)[C@@H](N)CO)C(C)C)C(=O)N[C@@H](CCC(N)=O)C(=O)N[C@@H](CC(C)C)C(=O)N[C@@H](CCSC)C(=O)N[C@@H](Cc1cnc[nH]1)C(=O)N[C@@H](CC(N)=O)C(=O)N[C@@H](CC(C)C)C(=O)NCC(=O)N[C@@H](CCCCN)C(=O)N[C@@H](Cc1cnc[nH]1)C(=O)N[C@@H](CC(C)C)C(=O)N[C@@H](CC(N)=O)C(=O)N[C@@H](CO)C(=O)N[C@@H](CCSC)C(=O)N[C@@H](CCC(=O)O)C(=O)N[C@@H](CCCN=C(N)N)C(=O)N[C@H](C(=O)N[C@@H](CCC(=O)O)C(=O)N[C@@H](Cc1c[nH]c2ccccc12)C(=O)N[C@@H](CC(C)C)C(=O)N[C@@H](CCCN=C(N)N)C(=O)N[C@@H](CCCCN)C(=O)N[C@@H](CCCCN)C(=O)N[C@@H](CC(C)C)C(=O)N[C@@H](CCC(N)=O)C(=O)N[C@@H](CC(=O)O)C(=O)N[C@H](C(=O)N[C@@H](Cc1cnc[nH]1)C(=O)N[C@@H](CC(N)=O)C(=O)N[C@@H](Cc1ccccc1)C(=O)O)C(C)C)C(C)C [LY333334]
- final PD model predicted increase in hip (femoral neck) BMD ([1]; 40 μg/day, 21 months): ~5.2%
- final PD model predicted increase in total lumbar spine BMD ([1]; 40 μg/day, 21 months): ~14.6%
- treatment group model change from mean baseline femoral neck BMD ([1]; 20-μg group, 21 months): 2.8%
- treatment group model change from mean baseline spine BMD ([1]; 20-μg group, 21 months): 10.5%
- treatment group model predicted change in femoral neck BMD ([1]; 20-μg group, 21 months): 0.018 g/cm^2
- treatment group model predicted change in spine BMD ([1]; 20-μg group, 21 months): 0.086 g/cm^2
- base model change from mean baseline femoral neck BMD [1, 3]: 4.2%
- base model change from mean baseline spine BMD [1, 3]: 12.6%
- base model predicted increase in femoral neck BMD, typical treated patient ([1]; 21 months, 20 and 40 μg groups together, 272 patients): 0.027 g/cm^2
- base model predicted increase in spine BMD, typical treated patient ([1]; 21 months, 20 and 40 μg groups together, 276 patients): 0.103 g/cm^2
- treatment group model change from mean baseline femoral neck BMD ([1]; 40-μg group, 21 months): 5.3%
- treatment group model change from mean baseline spine BMD ([1]; 40-μg group, 21 months): 14.8%
- treatment group model predicted change in femoral neck BMD ([1]; 40-μg group, 21 months): 0.034 g/cm^2
- treatment group model predicted change in spine BMD ([1]; 40-μg group, 21 months): 0.121 g/cm^2
- subjects with a negative BMD response (spine BMD<0.00 g/cm^2) ([1]; from a total of 272, 21 months, FIG. 11): four
- time of BSAP peak response after initiation of treatment ([2]; 20 and 40 μg/day): 6 months
- time of maximum PICP ([2]; 20 and 40 μg/day): ≤ 1 month
- time of peak urinary DPD concentrations after initiation of treatment ([2]; 20 and 40 μg/day): 6 months
- BSAP response in 40 μg/day group greater than 20 μg/day group ([2]; 40 vs 20 μg/day): 73%
- DPD response in 40 μg/day group greater than 20 μg/day group ([2]; 40 vs 20 μg/day): 83%
- NTX response in 40 μg/day group greater than 20 μg/day group ([2]; 40 vs 20 μg/day): 87%
- PICP response in 40 μg/day group greater than 20 μg/day group ([2]; 40 vs 20 μg/day): 94%
- minimum increase in PICP level in the entire study population ([2]; about 1 month of therapy): at least 20 pM
- time of peak urinary NTX excretion ([2]; last observation while on therapy): 12 months
